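Briefly, cells in 96-well plates were exposed to five compound concentrations for 48 h, and endpoints were estimated by linear interpolation. Here, GI50 denotes the concentration required for 50% inhibition of growth.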 The source made the active and inactive calls. Cut-off read from the data, not from the text of the source: active = GI50 up to about 1.1 µM and inactive = higher.

Some test systems named below: A498; CAKI-1; HOP-62; K562; MCF7; MDA-N; OVCAR-3; OVCAR-5; OVCAR-8; PC-3; RXF 393; SF-268; SF-295; SF-539; SK-MEL-2; SK-OV-3; HCC 2998; NCI-H226; SN12C; SR.
Common to all, as to assay: NCI tumour cell line growth inhibition, 48 h

As for `CC1(C)CCSC(/C=C/c2ccccc2)=N1`, the GI50 with A498 is 20.1 µM (inactive); in the assay with CAKI-1, 14.8 µM (inactive); in the assay with HOP-62, 16.4 µM (inactive); in the assay on K562, > 100 µM (inactive); with MCF7 it was 12.3 µM (inactive); with MDA-N, 12.4 µM (inactive). For the same compound, the GI50 in the assay with OVCAR-3 was 15.2 µM (inactive); with OVCAR-5, 20.2 µM (inactive); with OVCAR-8, 15.5 µM (inactive); in the assay on PC-3 it was 16.6 µM (inactive); in the assay on RXF 393, 21.6 µM (inactive); in the assay on SF-268 it was 30.8 µM (inactive). Also, the GI50 is 19.9 µM (inactive) with SF-295, 19.8 µM (inactive) in the assay on SF-539, 14.6 µM (inactive) in the assay with SK-MEL-2 and 43.9 µM (inactive) with SK-OV-3.

Take `CCOC(=O)C(C(=O)OCC)c1ccc([N+](=O)[O-])o1`: the GI50 was > 10 µM (inactive) with A498; 6.18 µM (inactive) in the assay on CAKI-1; 17.3 µM (inactive) with HCC 2998; > 50 µM (inactive) in the assay with HOP-62; 3.43 µM (inactive) in the assay on K562; 21.9 µM (inactive) in the assay with NCI-H226. The GI50 in the assay on OVCAR-3 was 5.73 µM (inactive); in the assay on OVCAR-5, 18.2 µM (inactive); in the assay with OVCAR-8, 5.24 µM (inactive); in the assay on RXF 393, 12.4 µM (inactive); in the assay on SF-268, 25.4 µM (inactive); with SF-295 it was 20.6 µM (inactive). The GI50 is 19.9 µM (inactive) with SF-539; 18.6 µM (inactive) with SK-MEL-2; 62.2 µM (inactive) in the assay with SK-OV-3; 18 µM (inactive) in the assay with SN12C; 6.93 µM (inactive) with SR.

Take `CC(C)(C)[Si](C)(C)OC1(CCc2ccccc2OS(=O)(=O)C(F)(F)F)CCCC=C1COCc1ccccc1` (centres undefined): the GI50 is 66.4 µM (inactive) in the assay with A498; > 100 µM (inactive) in the assay with CAKI-1; > 100 µM (inactive) with HOP-62; 5.71 µM (inactive) with K562; 19.1 µM (inactive) in the assay on MCF7; 46.1 µM (inactive) with NCI-H226. The GI50 with OVCAR-3 was > 100 µM (inactive); in the assay with PC-3, 3.51 µM (inactive); with RXF 393 it was 48.2 µM (inactive); in the assay with SF-295, 6.34 µM (inactive); in the assay on SF-539, > 100 µM (inactive); in the assay with SK-MEL-2, 4.59 µM (inactive). For the same compound, the GI50 in the assay on SK-OV-3 is > 100 µM (inactive); in the assay with SR, 1.86 µM (inactive).

In the case of `CC(C)CCCC(C)[C@H]1CC[C@H]2[C@@H]3CC[C@H]4C[C@@H](CCC=C(c5cc(Cl)c(O)c(C(=O)O)c5)c5cc(Cl)c(O)c(C(=O)O)c5)CC[C@]4(C)[C@H]3CC[C@]12C` (some centres undefined), the GI50 is > 50 µM (inactive) in the assay on A498; > 50 µM (inactive) in the assay on CAKI-1; > 50 µM (inactive) in the assay with HCC 2998; > 50 µM (inactive) in the assay with HOP-62; 31.1 µM (inactive) with K562; > 50 µM (inactive) in the assay with MCF7. The GI50 with NCI-H226, in the assay with OVCAR-3, in the assay with OVCAR-5, with OVCAR-8, in the assay on PC-3 and in the assay on RXF 393 was > 50 µM (inactive) throughout. The GI50 in the assay with SF-268, in the assay with SF-295, in the assay on SF-539, with SK-MEL-2, in the assay with SK-OV-3 and with SN12C was > 50 µM (inactive) each time.

As for `c1ccc(C2=C(c3ccccc3)Sc3nnc(CCCCCCCCc4nnc5n4NC(c4ccccc4)=C(c4ccccc4)S5)n3N2)cc1`, the GI50 with A498 was > 100 µM (inactive); with CAKI-1, > 100 µM (inactive); in the assay on HCC 2998, 85.5 µM (inactive); in the assay with HOP-62, > 100 µM (inactive); in the assay on K562 it was 25 µM (inactive); with MCF7, 35.8 µM (inactive). In addition, the GI50 in the assay with NCI-H226 is > 100 µM (inactive); with OVCAR-3 it was 39.8 µM (inactive); in the assay on OVCAR-5 it was > 100 µM (inactive); with OVCAR-8, 48.6 µM (inactive); in the assay with PC-3, 41.4 µM (inactive); with RXF 393, 50.4 µM (inactive). In addition, the GI50 is 83 µM (inactive) with SF-268; 46.7 µM (inactive) with SF-295; > 100 µM (inactive) in the assay with SF-539; 63 µM (inactive) with SK-MEL-2; > 100 µM (inactive) in the assay with SK-OV-3; 77.3 µM (inactive) in the assay on SN12C. Also, the GI50 in the assay with SR is 29.9 µM (inactive).

In the case of `C=C1C[C@@H]2CC[C@@]34CC5O[C@H]6C(O[C@H]7CC[C@H](CC(=O)O[C@@H]8[C@@H](C)[C@@H]9O[C@@H]%10C[C@]%11(C[C@@H]%12O[C@]%13(C[C@H](C)[C@@H]%14O[C@@H]%15CC(C(COC(C)=O)OC(C)=O)O[C@@H]%15C[C@@H]%14O%13)C[C@H](C)[C@@H]%12O%11)O[C@@H]%10C[C@@H]9O[C@H]8CC8O[C@@H](CC[C@@H]1O2)C[C@@H](C)C8(O)CO)O[C@@H]7[C@@H]6O3)[C@H]5O4` (some centres undefined), the GI50 in the assay with A498 was > 0.597 µM (active); in the assay on CAKI-1 it was 0.652 µM (active); with HCC 2998, 0.00489 µM (active); with HOP-62, > 1 µM (active); in the assay on K562, 0.513 µM (active); in the assay with MCF7, 0.249 µM (active). For the same compound, the GI50 with NCI-H226 is 0.45 µM (active); with OVCAR-3 it was 0.431 µM (active); in the assay with OVCAR-5, > 1 µM (active); in the assay with OVCAR-8 it was 0.668 µM (active); in the assay with PC-3 it was 0.399 µM (active); in the assay with RXF 393, 0.0359 µM (active). The GI50 with SF-268 is 0.455 µM (active); with SF-295, 0.297 µM (active); in the assay on SK-MEL-2, 0.721 µM (active); in the assay with SK-OV-3, > 1 µM (active); in the assay on SN12C it was > 0.838 µM (active); in the assay with SR it was 0.117 µM (active).

For `N=C(N)N/N=C/c1c(-c2ccc(Cl)c([N+](=O)[O-])c2)nc2sc(Cl)cn12`, the GI50 in the assay with A498 was 1.95 µM (inactive); with CAKI-1, 2.34 µM (inactive); in the assay with HCC 2998, 3.27 µM (inactive); in the assay with HOP-62, 3.85 µM (inactive); with K562, 0.617 µM (active); in the assay on MCF7 it was 2.39 µM (inactive). For the same compound, the GI50 in the assay with NCI-H226 is 41.4 µM (inactive); in the assay with OVCAR-3 it was 1.51 µM (inactive); in the assay on OVCAR-5, 4.17 µM (inactive); in the assay on OVCAR-8, 1.77 µM (inactive); with PC-3, 1.88 µM (inactive); with RXF 393 it was 1.77 µM (inactive). Further, the GI50 in the assay with SF-268 was 2.68 µM (inactive); in the assay with SF-295 it was 2.2 µM (inactive); in the assay with SF-539, 2.3 µM (inactive); in the assay with SK-MEL-2, 1.69 µM (inactive); in the assay with SN12C it was 2.32 µM (inactive); with SR, 1.44 µM (inactive).

`O=C1NC(=S)NC(=O)C1=Cc1ccc(-c2ccccc2)cc1`: the GI50 in the assay on CAKI-1 is > 100 µM (inactive); in the assay on HCC 2998, > 100 µM (inactive); in the assay with HOP-62, > 100 µM (inactive); in the assay on K562, 31.6 µM (inactive); in the assay on MCF7, 72.8 µM (inactive); in the assay on MDA-N it was > 100 µM (inactive). Besides, the GI50 was > 100 µM (inactive) in the assay with NCI-H226; > 100 µM (inactive) with OVCAR-3; > 100 µM (inactive) in the assay on OVCAR-5; 49.8 µM (inactive) in the assay on OVCAR-8; > 100 µM (inactive) with PC-3; 94.4 µM (inactive) in the assay on RXF 393. Besides, the GI50 with SF-268, in the assay with SF-295, in the assay on SF-539, in the assay with SK-MEL-2, in the assay on SK-OV-3 and with SN12C was > 100 µM (inactive) in each case.

As for `COC(=O)CCC(=O)CC(=O)C1=NS(=O)(=O)c2nc(S(N)(=O)=O)c(Cl)cc2N1`, the GI50 in the assay on A498, in the assay with CAKI-1, in the assay on HCC 2998, with HOP-62, in the assay on K562 and in the assay on NCI-H226 was > 100 µM (inactive) each time. Further, the GI50 in the assay with OVCAR-3, in the assay on OVCAR-5, with OVCAR-8, in the assay with RXF 393, in the assay with SF-268 and in the assay with SF-295 was > 100 µM (inactive) in each case. Besides, the GI50 in the assay with SF-539, in the assay with SK-MEL-2, in the assay with SK-OV-3, with SN12C and in the assay on SR was > 100 µM (inactive) each time.

Regarding `CN1C2CCC1CC(CCNC(c1ccccc1)c1ccccc1)C2` (centres undefined), the GI50 in the assay on A498 is 23.8 µM (inactive); with CAKI-1, 59.7 µM (inactive); in the assay with HOP-62, 19.7 µM (inactive); in the assay on K562, 6.5 µM (inactive); in the assay on MDA-N it was 12.6 µM (inactive); in the assay on NCI-H226, 36.9 µM (inactive). Also, the GI50 in the assay on OVCAR-3 is 47.4 µM (inactive); in the assay on OVCAR-5, > 100 µM (inactive); in the assay with OVCAR-8, 57 µM (inactive); with PC-3, 37.6 µM (inactive); in the assay with RXF 393 it was 14.4 µM (inactive); with SF-268 it was 35.3 µM (inactive). The GI50 with SF-295 is 22.5 µM (inactive); in the assay on SF-539 it was 17.9 µM (inactive); with SK-MEL-2 it was 16.7 µM (inactive); in the assay on SK-OV-3, > 100 µM (inactive); in the assay on SN12C, 83 µM (inactive); in the assay with SR it was 15.3 µM (inactive).

On to `Cc1ccc(NC(=O)c2cc3ccccc3c(/N=N/c3cc(S(=O)(=O)O)ccc3O)c2O)c(C)c1`, for which the GI50 in the assay on A498 is 42.3 µM (inactive); in the assay with CAKI-1 it was 32.5 µM (inactive); with HOP-62, 13.1 µM (inactive); in the assay on K562, 23 µM (inactive); with MDA-N, 32.2 µM (inactive); in the assay on NCI-H226, 15.4 µM (inactive). Also, the GI50 in the assay on OVCAR-3 is 3.26 µM (inactive); with OVCAR-5, 16.2 µM (inactive); in the assay on OVCAR-8, 17.5 µM (inactive); in the assay on PC-3, 14.5 µM (inactive); in the assay with RXF 393, 17.5 µM (inactive); in the assay with SF-268, 18.6 µM (inactive). Besides, the GI50 with SF-295 was 10 µM (inactive); with SK-MEL-2, 16 µM (inactive); with SK-OV-3, 20 µM (inactive); in the assay with SN12C, 41.7 µM (inactive).

(Values after ChEMBL document CHEMBL1201862, “PubChem BioAssay data set” (2004).)
